This is an account of results in patent US20230042830A1, “COMPOSITIONS AND METHODS FOR GENERATION OF RETINAL GANGLION CELLS FROM INDUCIBLE PLURIPOTENT STEM CELLS FOR THE TREATMENT OF PROGRESSIVE OPTIC NEUROPATHIES, INCLUDING GLAUCOMA” (THE TRUSTEES OF THE UNIVERSITY OF PENNSYLVANIA, priority 2021, published 2023).

One assay relates to iPSC-RGC cultures. The experiment in a line: Flow cytometry analysis of iPSC-RGC cultures (CD90/Thy-1, Brn-3b, RBPMS, SNCG). It counts as cell-based, human. The note with it: flow cytometry after 35 days in vitro, three independent iPSC lines. The method, then: iPSCs were cultured on 0.1% gelatinized plates containing iMEFs in 37° C. 5% O2 and 5% CO2 conditions. Cells were maintained until approximately 75% confluence, then feeder cells were depleted and approximately 1.5×10^6 iPSCs were seeded in one well of 6-well tissue culture dish (Corning) coated with 1:100 diluted growth factor reduced Matrigel. iPSCs were maintained in iPSC: MEF-conditioned medium (80:20)+20 ng/mL of bFGF and 5 ng/ml of stable bFGF. The MEF-conditioned media was prepared by plating iMEFs onto 0.1% gelatin at a density of 20,000 cells/cm^2 in iPSC media. […] On day 16 of differentiation, seven conditions—1) L, 2) X, 3) 1.5 μM CHIR99021 (CHIR) (Wnt agonist; SelleckChem), 4) LX, 5) LSB, 6) LSB-CHIR and 7) LSBX were evaluated for RPC and RGC markers on day 23. Cultures from the following four conditions—1) LSBX, 2) LSB, 3) LX, and 4) 1.5 μM CHIR99021 (CHIR) (Wnt agonist; SelleckChem) were further evaluated at 35. An additional five conditions—1) L only, 2) X only, 3) LSB, 4) LSBX, and 5) LSB-CHIR were evaluated for RPC markers on day 23 to evaluate for transcript expression differences across different conditions in RPCs. […]
A general note: A flow cytometer gives signals particle by particle.

A further assay concerns sonic hedgehog. The experiment in a line: RGC induction with SHH or SAG. The note with it: 100 nM, day 22-23. It counts as cell-based, human. As to the method:
Prior to RGC differentiation, medium was changed daily using RGC induction media containing SHH (sonic hedgehog) (250 ng/mL; R&D systems) or SAG (100 nM; Tocris), SHH was replaced with SAG after establishing equal competence, FGF8 (100 ng/mL, R&D systems) for two days. For RGC differentiation (see FIGS. 1D and 2B for kinetics), on day 24, cells were manually crossed into small clusters with Leibovitz's medium containing […] Glucose using the crosshatching technique as previously described (Espuny-Camacho et al., 2013), then replated at a density of 1.0×10^5 cells/well of 6-well plate coated with 1:100 diluted growth factor reduced Matrigel in RGCs induction media containing: Follistatin 300 (100 ng/ml), cyclopamine (0.5 uM, Tocris), DAPT (3 uM, Tocris), and 4.2 μM Rock inhibitor (Y27632). Media was changed 24 h post-plating with RGC induction media containing: Follistatin 300 (100 ng/ml) and DAPT (3 uM), daily for two days. From day 27, media was changed to RGC induction media containing: DAPT (3 uM, Tocris), 10 μM Rock inhibitor (Y27632), forskolin (5 uM; SelleckChem), cAMP (400 uM; Sigma-Aldrich), BDNF (40 ng/mL; R&D systems), NT4 (5 ng/mL; R&D systems), and CNTF (10 ng/mL; R&D systems). Media was changed every 2-3 days until day 36. […]

The next assay relates to SIRT1 pathway. The note with it: mouse models of optic neuritis and optic nerve trauma; cited from earlier work.

Each structure is given as a SMILES string.

On to `Cc1c[nH]c(-c2cnc(NCCNc3ccc(C#N)cn3)nc2-c2ccc(Cl)cc2Cl)n1` [CHIR, CHIR99021], for which the “Thy-1 (CD90) positive cells” value in the assay with iPSC-RGC cultures is given as 22.5%. `CNC1CCC(N(Cc2cccc(-c3ccncc3)c2)C(=O)c2sc3ccccc3c2Cl)CC1` (stereo not drawn) [SAG]: the “RGC induction compared with SHH” value with sonic hedgehog is recorded as “no difference in RGC induction changes”.

As for `Oc1ccc(C=Cc2cc(O)cc(O)c2)cc1` [resveratrol], in the assay on SIRT1 pathway, the “visual function and RGC survival” value was “preserves visual function and RGC survival”.
